# Publication PMC8020795 (Proceedings of the National Academy of Sciences of the …, 2021)
# “And” between values parts separate entries of the source, which are not always exact repeats. Equal entries are not always repeated. “Also recorded” adds a separate entry of the source.
# Key:
# CXCR4 = CXCR4 (Homo sapiens, UniProt P61073); test: CXCL12-induced chemotaxis inhibition assay in CCRF-CEM cells; assay type: cell-based; parameters: host or cells: CCRF-CEM; settings: mean ± SD
# Description: Figure S1. Binding affinity and chemotaxis inhibition assay of BPRCX807. (a) Binding affinity (IC50) of BPRCX807 was determined by 50% inhibition of radioligand [125I]CXCL12 binding to hCXCR4-transfected HEK293T membrane; (b) CXCL12-induced chemotaxis inhibition assay was performed to measure the inhibitory activity of BPRCX807 using CCRF-CEM cell line. Values represent the mean ± SD of at least three independent […]
# Figure S2. CXCR4+CD34+ stem cell mobilization. C57BL/6 male mice were […]
# h after dosing, the peripheral blood was harvested for analyzing the number of CXCR4+CD34+ stem cells. The data are the mean values ± SEM (n = 3/group). Statistical
# [1] = Non-GLP 14-d repeated dose toxicology; assay type: in vivo
# HCA-1 cells = test: Western blot of phospho-ERK and phospho-AKT after CXCL12 stimulation; assay type: cell-based, murine; settings: 20 µM, CXCL12 stimulation
# Description: (§1) Western blotting was conducted by following standard procedures. HCA-1 or JHH-7 cells (10^5 cells per well) were seeded in 12-well plates (Costar, IL), incubated for 12 h and […]
# (§2) containing (100 ng/mL) serum-free medium. After 24 h, the cells were lysed in RIPA buffer on ice for 30 min, and samples were collected and loaded with 4× Laemmli Sample buffer (Bio-Rad, Hercules, CA). The samples were separated on a 10% SDS-PAGE gels and transferred to PVDF membranes. After blocking with skim milk for 1 h, the membranes were incubated at 4°C overnight with primary antibodies against p -AKT, AKT, p-ERK, ERK (Cell Signaling, Danvers, MA) or β-actin (Sigma-Aldrich, St. Louis, MO) before incubation with HRP-conjugated secondary antibodies (Antibodies Inc., Davis, CA) for 1 h. […]
# (§3) Total RNA was extracted from HCA-1 cells using the RNeasy Mini Kit (Qiagen, CA, USA). cDNAs were synthesized using the High-Capicity cDNA Reverse Transcription Kit […]
# (§4) Biosystems, CA, USA) on a QPCR System. The comparative threshold cycle method was used to calculate fold change in gene expression, which was normalized to β-actin as a […]
# [2] = tested on: human liver cytochrome P450 isozymes (CYP 1A2, 2C9, 2C19, 2D6, 2E1, 3A4); settings: 100 μM; 1A2, 2C9, 2C19, 2D6, 2E1, and 3A4 isozymes
# Excerpt: The effects of BPRCX807 on the activity of six specific human liver cytochrome P450 isozymes (CYP 1A2, 2C9, 2C19, 2D6, 2E1, 3A4) expressed in baculovirus-infected insect cell supersomes were studied. The reactions used to measure the activity of these enzymes
# JHH-7 cells = test: Western blot of phospho-ERK and phospho-AKT after CXCL12 stimulation; assay type: cell-based, human; settings: 10 µM, CXCL12 stimulation
# Description: as §1, §2, §3, §4
# [3] = tested on: 65 other nonprimary targets (receptors and ion channels); test: Off-target standard assays, remaining panel; assay type: binding; settings: 10 µM
# Excerpt: Table: List of genes examined by real-time PCR and the primer sequences used.
# Genes Forward primers Reverse primers […]
# Vim 5’-[…]-3’ 5’-[…]-3’ […]
# Zeb2 5’-[…]-3’ 5’-[…]-3’
# Twist1 5’-[…]-3’ 5’-[…]-3’
# Cdh1 5’-[…]-3’ 5’-[…]-3’
# Mta3 5’-[…]-3’ 5’-[…]-3’ […]
# Off-target standard assays
# Methods employed in this study have been adapted from the scientific literature to […]
# maximize reliability and reproducibility. Reference standards were run as an integral part of […]
# each assay to ensure the validity of the results obtained. Radioligand binding Assays were […]
# performed under conditions described in the accompanying "Methods" section of this report […]
# by Eurofins Panlabs, Inc (Taipei, Taiwan, ROC).
# BPRCX807 were tested in the hERG (hERG-CHO, automated patch-clamp) assay and determined at Eurofins Panlabs (Missouri, USA). The experiment was accepted in accordance with Eurofins validation Standard Operating Procedure.
# Selectivity Screening of various chemokine receptors
# The results were performed by Eurofins DiscoverX (Fremont, California, USA). The
# hERG (human K+ channel) = biological target: T1, hERG (human K+ channel) (Homo sapiens, UniProt Q12809); test: hERG patch-clamp assay (hERG-CHO, automated patch-clamp); assay type: cell-based
# T1 construct: host or cells: CHO (hERG-CHO)
# T1 sequence (Q12809 whole entry): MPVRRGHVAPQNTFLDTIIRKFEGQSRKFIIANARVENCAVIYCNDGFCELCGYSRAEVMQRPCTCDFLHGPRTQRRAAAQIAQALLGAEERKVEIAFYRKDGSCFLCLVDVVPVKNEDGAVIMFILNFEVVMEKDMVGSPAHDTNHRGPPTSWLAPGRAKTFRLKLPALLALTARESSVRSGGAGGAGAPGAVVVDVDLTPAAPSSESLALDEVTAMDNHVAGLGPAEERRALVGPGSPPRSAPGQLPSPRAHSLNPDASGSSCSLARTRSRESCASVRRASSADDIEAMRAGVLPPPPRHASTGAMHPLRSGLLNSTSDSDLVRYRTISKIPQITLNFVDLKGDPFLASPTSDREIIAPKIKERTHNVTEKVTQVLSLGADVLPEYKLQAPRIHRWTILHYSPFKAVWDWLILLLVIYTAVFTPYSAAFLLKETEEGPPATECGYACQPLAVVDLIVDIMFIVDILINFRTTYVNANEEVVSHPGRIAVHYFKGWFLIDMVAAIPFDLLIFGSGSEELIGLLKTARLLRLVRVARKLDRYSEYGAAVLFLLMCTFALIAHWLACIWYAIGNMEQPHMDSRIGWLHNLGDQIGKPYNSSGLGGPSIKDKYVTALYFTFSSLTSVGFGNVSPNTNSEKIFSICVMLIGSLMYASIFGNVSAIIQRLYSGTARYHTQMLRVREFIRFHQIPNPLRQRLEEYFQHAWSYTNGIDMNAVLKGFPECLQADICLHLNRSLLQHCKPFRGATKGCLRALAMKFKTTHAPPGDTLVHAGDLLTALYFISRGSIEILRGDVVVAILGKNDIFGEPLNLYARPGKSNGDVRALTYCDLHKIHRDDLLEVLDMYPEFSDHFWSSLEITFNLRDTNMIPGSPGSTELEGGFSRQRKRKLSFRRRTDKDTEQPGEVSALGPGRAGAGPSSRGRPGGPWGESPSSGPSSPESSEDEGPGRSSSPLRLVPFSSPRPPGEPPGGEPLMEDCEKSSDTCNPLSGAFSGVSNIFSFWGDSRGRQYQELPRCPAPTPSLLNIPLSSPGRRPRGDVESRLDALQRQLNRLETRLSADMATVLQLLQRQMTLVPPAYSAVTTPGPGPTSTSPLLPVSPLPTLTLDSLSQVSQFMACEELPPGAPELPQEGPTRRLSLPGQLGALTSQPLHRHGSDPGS
# Excerpt: (§5) page 16: Table: List of genes examined by real-time PCR and the primer sequences used. Genes Forward primers Reverse primers Slug [NT] Fn1 [NT] Cdh2 […] Foxc2 [NT] Zeb1 [NT] Zeb2 [NT] Twist1 [NT] Cdh1 [NT] Mta3 [NT] Cldn3 [NT] Cldn5 [NT] β-actin […] [NT] Off-target standard assays Methods employed in this study have been adapted from the scientific literature to maximize reliability and reproducibility. Reference standards were run as an integral part of each assay to ensure the validity of the results obtained. Radioligand binding Assays were performed under conditions described in the accompanying "Methods" section of this report by Eurofins Panlabs, Inc (Taipei, Taiwan, ROC). hERG patch-clamp assay BPRCX807 were tested in the hERG (hERG-CHO, automated patch-clamp) assay and determined at Eurofins Panlabs (Missouri, USA). The experiment was accepted in accordance with Eurofins validation Standard Operating Procedure. Selectivity Screening of various chemokine receptors The results were performed by Eurofins DiscoverX (Fremont, California, USA). The S15
# hERG = biological target: T2, hERG (Homo sapiens, UniProt Q12809); test: as above; assay type: cell-based; settings: human, CHO cells that express hERG
# T2 construct: host or cells: CHO (hERG-CHO)
# T2 sequence (Q12809 whole entry): as above
# Excerpt: as §5
# Chain of CXCR4 (P61073 whole entry): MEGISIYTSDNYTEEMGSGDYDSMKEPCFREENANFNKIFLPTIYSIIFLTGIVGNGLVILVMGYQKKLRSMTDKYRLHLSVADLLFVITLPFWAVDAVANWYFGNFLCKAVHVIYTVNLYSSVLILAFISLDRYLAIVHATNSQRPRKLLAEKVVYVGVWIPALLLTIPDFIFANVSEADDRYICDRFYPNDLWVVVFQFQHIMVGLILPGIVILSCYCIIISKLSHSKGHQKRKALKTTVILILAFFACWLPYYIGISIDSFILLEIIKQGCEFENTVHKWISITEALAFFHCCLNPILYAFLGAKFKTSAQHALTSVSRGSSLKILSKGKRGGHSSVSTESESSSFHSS
structure (smiles),measurement,setting,value
Cc1cc(NC2CCN(C(=O)CCNCC(=O)O)CC2)nc(NCc2nc(CCCNCCCNC3CCCCC3)co2)n1 [BPRCX807],EC50,CXCR4,48 nM and 48.1 nM
same,Survival in repeated dose toxicology,"[1]; SD rats, 50 mg/kg/d, 14 d",all animals survived up to study termination
same,"Non-GLP 14-d repeated dose, overall finding","[1]; rat, in vivo",Clean
same,Hematological and biochemical data vs vehicle,"[1]; rat, in vivo, 50 mg/kg/day",no significant difference
same,"Major organs (heart, lung, kidney, liver) vs vehicle","[1]; rat, in vivo, 50 mg/kg/day","normal in size, weight, and color"
same,Adrenal Glands/B.W.,"[1]; rat, in vivo, sc, 50 mg/kg",0.0002 ± 0.00003
same,Albumin (ALB),"[1]; rat, in vivo, sc, 50 mg/kg",4.0 ± 0.2 g/dL
same,Alkaline Phosphatase (ALP),"[1]; rat, in vivo, sc, 50 mg/kg",901 ± 60 U/L
same,Basophil,"[1]; rat, in vivo, sc, 50 mg/kg",0.002 ± 0.004 103/µL
same,Basophil %,"[1]; rat, in vivo, sc, 50 mg/kg",0.01 ± 0.02%
same,Blood Urea Nitrogen (BUN),"[1]; rat, in vivo, sc, 50 mg/kg",16.7 ± 2.1 mg/dL
same,Creatinine (CRE),"[1]; rat, in vivo, sc, 50 mg/kg",0.22 ± 0.04 mg/dL
same,Eosinophil,"[1]; rat, in vivo, sc, 50 mg/kg",0.01 ± 0.01 103/µL
same,Eosinophil %,"[1]; rat, in vivo, sc, 50 mg/kg",0.11 ± 0.05%
same,Erythrocyte,"[1]; rat, in vivo, sc, 50 mg/kg",6.33 ± 0.45 106/µL
same,Glutamate oxaloacetate transaminase (GOT),"[1]; rat, in vivo, sc, 50 mg/kg",67 ± 7 U/L
same,Glutamate pyruvate transaminase (GPT),"[1]; rat, in vivo, sc, 50 mg/kg",35 ± 5 U/L
same,Heart/B.W.,"[1]; rat, in vivo, sc, 50 mg/kg",0.0038 ± 0.0004
same,Hematocrit,"[1]; rat, in vivo, sc, 50 mg/kg",41.4 ± 3.5
same,Hemoglobin,"[1]; rat, in vivo, sc, 50 mg/kg",13.8 ± 0.9 g/dL
same,Kidneys/B.W.,"[1]; rat, in vivo, sc, 50 mg/kg",0.0095 ± 0.0011
same,Lactate dehydrogenase (LDH),"[1]; rat, in vivo, sc, 50 mg/kg",272 ± 132 U/L
same,Liver/B.W.,"[1]; rat, in vivo, sc, 50 mg/kg",0.0460 ± 0.0044
same,Lung/B.W.,"[1]; rat, in vivo, sc, 50 mg/kg",0.0054 ± 0.0005
same,Lymphocyte,"[1]; rat, in vivo, sc, 50 mg/kg",6.36 ± 3.70 103/µL
same,Lymphocyte %,"[1]; rat, in vivo, sc, 50 mg/kg",58.95 ± 6.42%
same,Mean corpuscle hemoglobin,"[1]; rat, in vivo, sc, 50 mg/kg",21.8 ± 1.0 pg
same,Mean corpuscle volume,"[1]; rat, in vivo, sc, 50 mg/kg",65.4 ± 2.7 fL
same,Mean platelet volume,"[1]; rat, in vivo, sc, 50 mg/kg",6.4 ± 0.1 fL
same,Monocyte,"[1]; rat, in vivo, sc, 50 mg/kg",0.63 ± 0.36 103/µL
same,Monocyte %,"[1]; rat, in vivo, sc, 50 mg/kg",5.82 ± 1.11%
same,Neutrophil,"[1]; rat, in vivo, sc, 50 mg/kg",3.75 ± 2.13 103/µL
same,Neutrophil %,"[1]; rat, in vivo, sc, 50 mg/kg",35.11 ± 5.51%
same,Platelet,"[1]; rat, in vivo, sc, 50 mg/kg",1327± 239 103/µL
same,Spleen/B.W.,"[1]; rat, in vivo, sc, 50 mg/kg",0.0021 ± 0.0004
same,Testes/B.W.,"[1]; rat, in vivo, sc, 50 mg/kg",0.0094 ± 0.0006
same,Thymus/B.W.,"[1]; rat, in vivo, sc, 50 mg/kg",0.0021 ± 0.0006
same,White blood cells,"[1]; rat, in vivo, sc, 50 mg/kg",10.75 ± 6.09 103/µL
same,CXCR4/CXCL12-triggered ERK and Akt activation,HCA-1 cells,suppress CXCR4/CXCL12-triggered ERK and Akt activation more significantly than its counterparts
same,CYP450 inhibition,[2],no inhibitory effects; also recorded: No inhibition
same,CXCR4/CXCL12-triggered ERK and Akt activation,JHH-7 cells,suppress CXCR4/CXCL12-triggered ERK and Akt activation more significantly than its counterparts
same,Inhibition of 65 other nonprimary targets,[3],< 50%
same,IC50,hERG (human K+ channel),> 100000 nM
same,inhibition at 1 µM,hERG; 1 µM,13.8%
same,inhibition at 10 µM,hERG; 10 µM,9%
same,inhibition at 100 µM,hERG; 100 µM,17.4%
